Series [1] is described as follows: in vitro. It is filed as in vitro ADME. The settings on record: PAMPA; donor pH 6.5, acceptor pH 7.4, 5 h, 37°C; read-out: PAMPA permeability Mean Pe. The protocol:
A parallel artificial membrane permeability assay was performed in a 96-well precoated PAMPA plate system (Corning Gentest # 353015). The compound solutions were prepared by diluting the stock solutions (10 mM) in phosphate-buffered saline (PBS) pH 6.5 at a final concentration of 10 μM and then added to the donor portion of the plate (300 μl/well), while PBS pH 7.4 (200 μl/well) was added to the acceptor portion, and the DMSO concentration was lower than 1%. The two portions of the plate were then coupled, and the system was incubated for 5 h at 37°C. Samples of the initial donor solution (T0) were collected and stored at -20°C. At the end of the incubation, samples were collected from the donor and acceptor plates and then added to plates containing quench solution (10% water and 90% methanol:acetonitrile (50:50) + 50 nM tolbutamide). The T0 samples were treated similarly. The final concentrations of compounds in the donor, acceptor and T0 wells were quantified by LC-MS/MS (liquid chromatography-tandem mass spectrometry) Prominence UFLC (Shimadzu Corporation, Kyoto, Japan) and interfaced with an LCMS-8045 triple quadrupole mass spectrometer (Shimadzu Corporation, Kyoto, Japan) with an electrospray ionization source (ESI). The chromatogram for analysis was obtained on a Supelco Ascentis express C18 column (3 cm x 2.1 mm, 5 μM). The mobile phases consisted of water + 0.1% formic acid (A) and acetonitrile + 0.1% formic acid (B). The mobile phase was eluted in binary gradient mode, and the gradient was as follows: 0 min, 95% A; 0.05 mins. 95% A; 0.3 mins: 2% A; 0.7 mins: 2% A; 0.8 mins: 95% A; 1.15 mins 95% A; and 2.0 mins 95% A. The run time was 2 minutes, the sample injection volume was 10 μL, and the flow rate was 0.7 mL/min. The results were used to calculate an effective permeability (Pe) value.
In general terms: The PAMPA barrier holds no transporters, so it reflects passive diffusion.

Series [2] is described as follows: physchem. Format: physicochemical. To be noted: pH 7.4, from LC retention time calibration; read-out: LogD 7.4 (Oct/buff). The protocol: To analyse cytochalasin lipophilicity, a methodology based on the retention time of molecules in stationary phase was used in LC-MS/MS (liquid chromatography-tandem mass spectrometry) Prominence UFLC (Shimadzu Corporation, Kyoto, Japan) and an interface with an LCMS-8045 triple quadrupole mass spectrometer (Shimadzu Corporation, Kyoto, Japan) with an electrospray ionization source (ESI). The chromatogram was obtained using a Supelco Ascentis express RP amide HPLC column (5 cm x 2.1 mm, 2.7 μM). The mobile phases consisted of 5% methanol in 10 mM ammonium acetate pH 7.4 (A) and 100% methanol (B). The mobile phase was eluted in binary gradient mode, and the gradient was as follows: 0 min, 95% A; 0.3 mins. 100% A; 5.2 mins. 0% A; 5.6 mins. 0% A; 5.8 mins. 100% A; 7.0 mins. And 100% A. The run time was 7 minutes, and the sample injection volume was 5 μL. Test compounds were prepared at 1.0 mg/mL by adding the stock solution at (1:1) mobile phases A:B (internal standard at 200 nM), and the DMSO concentration was lower than 2%. […]. The retention time (in minutes) of each of the eight standards was plotted against their LogD values. The resulting equation for the calibration curve (y = mx + b) was used to calculate the LogD values for the cytochalasins.

In series [3] the test system is intracellular T. cruzi Tulahuen LacZ amastigotes. Description: microbe, parasite or virus in culture. Format: cell-based, Trypanosoma cruzi. To be noted: for IC50: Trypanosoma cruzi, intracellular amastigotes, Tulahuen LacZ, HFF-1 host cells, 120 h, read-out: T. cruzi IC50 (μM ± SD); for SI^1 (CC50 HFF-1/IC50 T. cruzi) / SI^3 (CC50 HepG2/IC50 T. cruzi): selectivity index. The protocol:
The epimastigote forms of the T. cruzi Tulahuen strain, which expresses the E. coli β-galactosidase gene lacZ [11], were grown in liver infusion tryptone (LIT) supplemented with 10% FCS (Cultilab) and 1% pen/strep (Sigma–Aldrich) at 28°C. Metacyclogenesis from epimastigotes to trypomastigotes was induced by the incubation of the epimastigotes in Grace’s insect medium (Sigma-Aldrich, 28°C) every 5 days. After 5 days, the trypomastigote forms were used to infect the HFF-1 cells. The promastigote forms of L. infantum were maintained in Schneider’s insect medium (Sigma-Aldrich) supplemented with 10% FCS (Cultilab) and 1% pen/strep (Sigma-Aldrich) at 28°C and subcultured every 6 or 7 days.
In vitro assays against T. cruzi were performed as described previously. HFF-1 human fibroblasts were seeded at 4x10^3/well in 96-well tissue culture plates in DMEM (Cultilab) without phenol red and then incubated overnight (37°C, 5% CO2). Next, trypomastigotes were added at 4x10^4/well, and the plates were incubated (37°C, 5% CO2). After 24 h, 2-fold serial dilutions of the test compounds were added at concentrations ranging from 64 to 0.12 μM, and the plates were then incubated (37°C, 5% CO2). Each compound concentration was evaluated in duplicate. All the plates included BZ (64–0.12 μM) (Sigma-Aldrich) as a positive control and untreated wells (100% growth) as a negative control. After 120 h, chlorophenol red β-D-galactopyranoside (CPRG, Sigma-Aldrich) was added to each well. The absorbance was measured at 570 nm in an automated SpectraMax 384 microplate reader (Sunnyvale, CA, USA), and the data were analysed using GraphPad Prism version 8.0 (San Diego, CA, USA) for IC50 value calculation.
The analyses were performed using GraphPad Prism version 8.0 (GraphPad Software, San Diego, CA, USA). Both the IC50 and CC50 values were calculated by adjusting the sigmoid dose-response curves, and the selectivity index (SI) values were determined by CC50/IC50 [16]. Statistical analyses were performed using one-way ANOVA followed by Dunnett’s multiple comparison test.

Series [4] relates to L. infantum. Description: Screening of natural product collection against L. infantum (cell infection assay). It is filed as cell-based. To be noted: Leishmania infantum; compound concentration of 50 μM. The protocol: A screening of a natural product collection was performed by using cell assays for infection with Trypanosoma cruzi and Leishmania infantum. The collection includes 320 compounds from the metabolic classes terpenes, alkaloids, peptides and amides that were isolated by plant species or endophytic fungi. For further evaluation in this study, cytochalasins A-D (CAS numbers: CytA: 14110-64-6, CytB: 14930-96-2, CytC: 22144-76-9, CytD: 22144-77-0) were obtained from Sigma-Aldrich (St. Louis, MO, USA). The purity of these compounds was ≥97%. The stock solution of the compounds was prepared in 100% DMSO (dimethyl sulfoxide—Sigma-Aldrich).

SMILES strings stand for the structures.

What is called IC50 is the concentration at which inhibition is half-maximal. The inhibition is the share of the control response that was lost under treatment. Low readings indicate a response near the control, high ones a response far below the control. For `C=C1[C@@H](C)[C@H]2[C@H](Cc3ccccc3)NC(=O)[C@]23OC(=O)/C=C/C(=O)CCC[C@@H](C)C/C=C/[C@H]3[C@@H]1O` [Cytochalasin A], the Papp in series [1] was found to be 27.1 ± 2.37 ×10⁻⁶ cm/s. Besides, in series [2], the chromatographic logD was found to be 3.907 ± 0.014. Further, in series [3], the IC50 turned out to be 3.02 ± 2.16 µM, the “SI^1 (CC50 HFF-1/IC50 T. cruzi)” value is listed as 8.96 and the “SI^3 (CC50 HepG2/IC50 T. cruzi)” value was 6.99. The compound also came in with an inhibition at 50 µM in series [4] of 100%.
`C=C1[C@@H](C)[C@H]2[C@H](Cc3ccccc3)NC(=O)[C@]23OC(=O)/C=C/[C@H](O)CCC[C@@H](C)C/C=C/[C@H]3[C@@H]1O` [Cytochalasin B]: the Papp in series [1] is 15.8 ± 0.31 ×10⁻⁶ cm/s. Also, in series [2], the chromatographic logD came out at 3.361 ± 0.008. Further, in series [3], the IC50 is 16.9 ± 1.47 µM, the “SI^1 (CC50 HFF-1/IC50 T. cruzi)” value is on record as 1.29 and the “SI^3 (CC50 HepG2/IC50 T. cruzi)” value is recorded as 2.74. For the same compound, the inhibition at 50 µM in series [4] came to 57.7%.
Turning to `CC(=O)OC1C=CC(C)(O)C(=O)C(C)CC=CC2C(O)C(C)=C(C)C3C(Cc4ccccc4)NC(=O)C123` (stereo not drawn) [Cytochalasin C], the Papp in series [1] was found to be 14.8 ± 3.28 ×10⁻⁶ cm/s. Moreover, in series [2], the chromatographic logD came to 3.434 ± 0.003. In addition, in series [3], the IC50 is 10.2 ± 1.13 µM, the “SI^1 (CC50 HFF-1/IC50 T. cruzi)” value is 7.45 and the “SI^3 (CC50 HepG2/IC50 T. cruzi)” value amounted to 2.19. The compound further returned an inhibition at 50 µM in series [4] of 58.5%.
As for `C=C1[C@@H](C)[C@H]2[C@H](Cc3ccccc3)NC(=O)[C@]23[C@H](OC(C)=O)/C=C/[C@@](C)(O)C(=O)[C@@H](C)C/C=C/[C@H]3[C@@H]1O` [Cytochalasin D], the Papp in series [1] was 8.74 ± 0.64 ×10⁻⁶ cm/s. For the same compound, the chromatographic logD in series [2] came out at 3.043 ± 0.004. Also, in series [3], the IC50 was determined as 20.2 ± 3.27 µM, the “SI^1 (CC50 HFF-1/IC50 T. cruzi)” value is on record as 4.78 and the “SI^3 (CC50 HepG2/IC50 T. cruzi)” value is recorded as 6.11. In addition, in series [4], 50 µM produced 64.9% inhibition.

Values taken from PMC9529094, “Identification of natural cytochalasins as leads for neglected tropical diseases drug discovery” (PLoS ONE, 2022).
